Where two headings read alike, the source gives them in different places. Each block holds one compound with its values, some of them ahead of it.
Columns and labels:
[1] = biological target: T1, NEK6 (Homo sapiens, UniProt Q9HC98); assay: Off-chip Mobility Shift Assay (MSA), NEK6; format: biochemical; conditions: CARNA Biosciences Study CBS170097, ATP 75 µM
T1 construct: purchased Carna 05-130
Protocol: Therefore, we decided to evaluate the selectivity of compound 8 against a panel of NEK kinases at 10 µM, using the technique of Off-chip Mobility shift assay. This concentration was chosen according to the guidelines proposed by Knight and Shokat, since the probability of off-target effects increases dramatically above 10 µM[36]. Furthermore, ATP concentration was set to approximate the Km,ATP for each kinase, so that the resulting selectivity profile directly reflects the intrinsic affinities of the inhibitor[37]. […] A major consequence of this substitution may be the redistribution of surface charges at the flexible activation loop resulting in an altered electrostatic potential and ability of NEK6 kinase to interact with other molecules.
The inhibitory activity of compounds 8 and 21 on NEK6 was also verified with MSA technique (Off-chip Mobility shift assay) (CARNA Biosciences Study ID: CBS170097, CARNA Biosciences, Kobe). […] PKR Inhibitor was used as positive control. For profiling study against NEK kinases (i.e. NEK1, NEK2, NEK6, NEK7, NEK9) (CARNA Biosciences Study ID: CBS170098), 8 was tested at 10 μM and ATP concentration approximating Km for each kinase. Assay condition for kinases are available on “Kinase profiling book” downloading by www.carnabio.com (https://www.carnabio.com/output/pdf/ProfilingProfilingBook_en.pdf).

[2] = biological target: T1, NEK6; assay: LANCE-Ultra NEK6 kinase assay; format: biochemical; conditions: 100 µM ATP
Protocol: The twenty-five compounds resulting from virtual screening were firstly tested for the ability to inhibit the enzymatic activity of NEK6 at a single concentration of 30 µM, using LANCE technology. Quercetin, able to inhibit a broad panel of kinase, was used as positive control of inhibition[12],[30]. This initial screening allowed the identification of two compounds determining >70% NEK6 inhibition at 30 µM, i.e. compound 8 (6-hydroxy-4-methyl-2-oxo-5-[(5-phenyl (2-furyl)) methylene] pyridine-3-carbonitrile), and 21 (6-amino-2-phenyl-5,7,9-triazatetracyclo[8.7.0.0^3,^8 0^11,^16]heptadeca-1(10),3(8),6,11,13,15 hexaene-4,17-dione) (Fig. 4). […] The possible binding mode of compound 8 in the ATP-binding site of NEK6 as well as nonbonded interactions across the complex interface are shown in Fig. 6. Compound 8 may use its phenyl ring and furyl ring to form hydrophobic Pi-alkyl interactions with Ala72 (strand β3), Ala125 (hinge region) and Val59 (strand β2) of the ATP binding site (Fig. 6B). […] This is particulary relevant when considering that C–H···O hydrogen bonds play an important role in the ligand-binding process[33]–[35].
Compounds (i.e. 1 to 25) (Molport, Riga, LV-1011, Latvia) were dissolved in DMSO 100% as 10 mM stock and stored at −20 C. Activity of the compounds as NEK6 inhibitors was tested using LANCE NEK6 Ultra Kinase Assays protocol (U-TRF #25 technical note, PerkinElmer, Monza, MB). Compounds were first tested at 30 µM and incubated with 4 nM NEK6 (Carna, Chuo-ku, Kobe, Japan, # 05-130), 50 nM ULight-p70 S6K Peptide (PerkinElmer # TRF0126) and 100 μM ATP (Sigma-Aldrich, Saint Louis, U.S.A, # A2383) at room temperature. Kinase reactions were terminated after 90 minutes by the addition of EDTA and the signal was read with the Enspire plate reader (PerkinElmer) in TR-FRET mode (excitation at 320 nm and emission at 665 nm) after 60 minutes. Inhibition of NEK6 activity was calculated as percentage with respect to the control sample (100% of activity). Quercetin was used as positive control (Molport). […] For each compound the dose inhibiting 50% of NEK6 activity (IC50) was calculated using the GraphPad Prism 5.0 Software (San Diego, CA, USA).

[3] = tested on: PEO1 (ovary); assay: Cell-based cytotoxicity assay (ATPlite), PEO1; parameters: species or system human; conditions: 72 h
Excerpt: The following human carcinoma cell lines were used for the study: MDA-MB-231 and MCF-7 (breast cancer; ATCC, Sesto San Giovanni, MI), PEO1 and COV318 (ovarian cancer; ECACC, Salisbury, UK and ATCC), HCT-15 and SW948 (colon cancer; Public Health England, Salisbury, UK and ATCC), NCI-H1975 and NCI-H1299, (lung cancer; ATCC). Cells were routinely tested free of mycoplasma (MycoAlert mycoplasma detection kit, LONZA, Rockland, ME, USA) and validated by STR (Short Tandem Repeat) DNA profiling (BMR Genomics srl, PD). Cells were grown following supplier indication, in a fully humidified atmosphere of 5% CO2/95% air. All the reagents were purchased from Sigma-Aldrich (St. Louis, MO), if not otherwise specified.

T1 sequence (Q9HC98 whole entry): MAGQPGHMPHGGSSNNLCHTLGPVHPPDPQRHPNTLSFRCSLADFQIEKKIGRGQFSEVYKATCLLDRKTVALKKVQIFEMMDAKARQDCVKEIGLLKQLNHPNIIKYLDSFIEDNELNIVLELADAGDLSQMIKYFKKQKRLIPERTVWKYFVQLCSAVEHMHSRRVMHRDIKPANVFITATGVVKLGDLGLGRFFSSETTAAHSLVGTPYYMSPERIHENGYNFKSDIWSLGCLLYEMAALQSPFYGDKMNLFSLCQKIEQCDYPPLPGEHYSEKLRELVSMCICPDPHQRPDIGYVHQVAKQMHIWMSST

IC50 [1]: 49.8 µM
IC50 ([2]; LANCE-Ultra, mean ± SEM of 4 independent experiments): 2.6 ± 0.05 µM
inhibition at 30 µM ([2]; single concentration 30 µM, LANCE): > 70%
SMILES: Nc1nc2c(c(=O)[nH]1)C(c1ccccc1)C1=C(N2)c2ccccc2C1=O (centres unmarked) [Compound 21, 6-amino-2-phenyl-5,7,9-triazatetracyclo[8.7.0.0^3,^8 0^11,^16]heptadeca-1(10),3(8),6,11,13,15 hexaene-4,17-dione]

SMILES: N.N.[Cl][Pt][Cl] [cisplatin]
IC50 ([3]; PEO1, cisplatin alone, read-out: Cisplatin IC50 (mean ± SEM)): 7.9 ± 0.65 µM

SMILES: CC(=O)O[C@H]1C(=O)[C@@]2(C)[C@H]([C@H](OC(=O)c3ccccc3)[C@]3(O)C[C@H](OC(=O)[C@H](O)[C@@H](NC(=O)c4ccccc4)c4ccccc4)C(C)=C1C3(C)C)[C@]1(OC(C)=O)CO[C@@H]1C[C@@H]2O [paclitaxel]
IC50 ([3]; Homo sapiens, PEO1, paclitaxel alone, read-out: IC50 paclitaxel): 0.007 ± 1e-06 µM

From PMC6207720, “Identification and antitumor activity of a novel inhibitor of the NIMA-related kinase NEK6” (Scientific Reports, 2018)
